System: MV-4-11 cells
Test: Gene expression microarray analysis (Affymetrix PrimeView) and GSEA
Assay type: cell-based, human
Parameters: RFU PODN (11730768_x_at) / Fold change /veh PODN (11730768_x_at) / RFU LINC00158 (11744669_a_at) / Fold change /veh LINC00158 (11744669_a_at) / RFU DUSP10 (11751237_a_at) / Fold change /veh DUSP10 (11751237_a_at) / RFU ID3 (11757404_x_at) / Fold change /veh ID3 (11757404_x_at) / RFU PLEKHG5 (11737974_s_at) / Fold change /veh PLEKHG5 (11737974_s_at) / RFU LRRC4B (11730491_at) / Fold change /veh LRRC4B (11730491_at) / RFU GIMAP4 (11747438_a_at) / Fold change /veh GIMAP4 (11747438_a_at) / RFU KRT8 (11758183_x_at) / Fold change /veh KRT8 (11758183_x_at) / RFU CNN1 (11734310_a_at) / Fold change /veh CNN1 (11734310_a_at) / RFU VPS37D (11726825_at) / Fold change /veh VPS37D (11726825_at) / RFU C10orf10 (11716522_x_at) / Fold change /veh C10orf10 (11716522_x_at) / RFU KIR2DL2 /// KIR2DL4 /// KIR2DL5A /// KIR2DL5B /// KIR2DS1 /// KIR2DS2 /// KIR2DS3 /// KIR2DS4 /// KIR3DL3 /// KIR3DL3 /// KIR3DS1 (11738374_at) / Fold change /veh KIR2DL2 /// KIR2DL4 /// KIR2DL5A /// KIR2DL5B /// KIR2DS1 /// KIR2DS2 /// KIR2DS3 /// KIR2DS4 /// KIR3DL3 /// KIR3DL3 /// KIR3DS1 (11738374_at) / RFU C1QL1 (11718748_at) / Fold change /veh C1QL1 (11718748_at) / RFU TMPRSS4 (11747572_a_at) / Fold change /veh TMPRSS4 (11747572_a_at) / RFU HAMP (11756126_x_at) / Fold change /veh HAMP (11756126_x_at) / RFU RNFT2 (11725882_a_at) / Fold change /veh RNFT2 (11725882_a_at) / RFU NR4A2 (11747474_a_at) / Fold change /veh NR4A2 (11747474_a_at) / RFU ABCC12 (11746883_a_at) / Fold change /veh ABCC12 (11746883_a_at) / RFU TMEM136 (11760407_x_at) / Fold change /veh TMEM136 (11760407_x_at) / RFU CLDN22 /// WWC2 (11732394_at) / Fold change /veh CLDN22 /// WWC2 (11732394_at) / RFU HLA-DPB1 (11760878_x_at) / Fold change /veh HLA-DPB1 (11760878_x_at) / RFU SPINT1 (11716480_a_at) / Fold change /veh SPINT1 (11716480_a_at) / RFU GAP43 (11754022_s_at) / Fold change /veh GAP43 (11754022_s_at) / RFU A4GNT (11735810_at) / Fold change /veh A4GNT (11735810_at) / RFU PRB3 (11715151_x_at) / Fold change /veh PRB3 (11715151_x_at) / RFU TUBB4B (11761932_at) / Fold change /veh TUBB4B (11761932_at) / RFU CAPN14 (11732068_a_at) / Fold change /veh CAPN14 (11732068_a_at) / RFU TMCC2 (11721928_a_at) / Fold change /veh TMCC2 (11721928_a_at) / RFU IRGQ (11745062_a_at) / Fold change /veh IRGQ (11745062_a_at) / RFU FAM174B (11720279_a_at) / Fold change /veh FAM174B (11720279_a_at) / RFU TMPRSS4 (11748680_a_at) / Fold change /veh TMPRSS4 (11748680_a_at) / RFU FAM212B (11763350_a_at) / Fold change /veh FAM212B (11763350_a_at) / RFU PLEKHG5 (11743358_a_at) / Fold change /veh PLEKHG5 (11743358_a_at) / RFU ZSCAN30 (11745921_a_at) / Fold change /veh ZSCAN30 (11745921_a_at) / RFU CMKLR1 (11741424_a_at) / Fold change /veh CMKLR1 (11741424_a_at) / RFU LOC101060620 /// MAPK8IP1 (11723275_at) / Fold change /veh LOC101060620 /// MAPK8IP1 (11723275_at) / RFU SPTSSB (11747773_x_at) / Fold change /veh SPTSSB (11747773_x_at) / RFU PRSS12 (11739890_at) / Fold change /veh PRSS12 (11739890_at) / RFU BIN1 (11741810_x_at) / Fold change /veh BIN1 (11741810_x_at) / RFU WNT11 (11732464_a_at) / Fold change /veh WNT11 (11732464_a_at) / RFU C10orf10 (11716521_a_at) / Fold change /veh C10orf10 (11716521_a_at) / RFU C5orf56 (11738089_at) / Fold change /veh C5orf56 (11738089_at) / RFU CYB561 (11721691_x_at) / Fold change /veh CYB561 (11721691_x_at) / RFU ANKRD19P (11752326_a_at) / Fold change /veh ANKRD19P (11752326_a_at) / RFU OR2T12 /// OR2T33 /// OR2T8 (11738714_s_at) / Fold change /veh OR2T12 /// OR2T33 /// OR2T8 (11738714_s_at) / RFU VCAN (11748164_a_at) / Fold change /veh VCAN (11748164_a_at) / RFU JSRP1 (11732532_at) / Fold change /veh JSRP1 (11732532_at) / RFU KRTAP10-11 (11738290_x_at) / Fold change /veh KRTAP10-11 (11738290_x_at) / RFU MYO3A (11730013_a_at) / Fold change /veh MYO3A (11730013_a_at) / RFU EBF3 (11725865_a_at) / Fold change /veh EBF3 (11725865_a_at) / RFU CAMK2N1 (11719241_x_at) / Fold change /veh CAMK2N1 (11719241_x_at) / RFU C5orf56 (11738088_a_at) / Fold change /veh C5orf56 (11738088_a_at) / RFU OLFML3 (11715873_a_at) / Fold change /veh OLFML3 (11715873_a_at) / RFU LOC100653217 /// NTM (11731650_a_at) / Fold change /veh LOC100653217 /// NTM (11731650_a_at) / RFU MAPK11 (11762145_a_at) / Fold change /veh MAPK11 (11762145_a_at) / RFU FIZ1 (11724087_x_at) / Fold change /veh FIZ1 (11724087_x_at) / RFU OASL (11726364_x_at) / Fold change /veh OASL (11726364_x_at) / RFU SOX15 (11748057_x_at) / Fold change /veh SOX15 (11748057_x_at) / RFU CD79A (11719716_a_at) / Fold change /veh CD79A (11719716_a_at) / RFU HIST1H1D (11736915_at) / Fold change /veh HIST1H1D (11736915_at) / RFU CASKIN2 (11723855_a_at) / Fold change /veh CASKIN2 (11723855_a_at) / RFU LOC730098 (11760151_x_at) / Fold change /veh LOC730098 (11760151_x_at) / RFU OR4N2 (11742367_at) / Fold change /veh OR4N2 (11742367_at) / RFU PRRT2 (11749266_a_at) / Fold change /veh PRRT2 (11749266_a_at) / RFU SNX32 (11753110_a_at) / Fold change /veh SNX32 (11753110_a_at) / RFU CDHR5 (11726645_a_at) / Fold change /veh CDHR5 (11726645_a_at) / RFU RCAN1 (11760418_a_at) / Fold change /veh RCAN1 (11760418_a_at) / RFU FAM167A (11723789_a_at) / Fold change /veh FAM167A (11723789_a_at) / RFU FAM26E (11764081_at) / Fold change /veh FAM26E (11764081_at) / RFU ISYNA1 (11749810_s_at) / Fold change /veh ISYNA1 (11749810_s_at) / RFU ACY1 (11761880_at) / Fold change /veh ACY1 (11761880_at) / RFU 11764098_at / Fold change /veh 11764098_at / RFU SAMD14 (11745864_x_at) / Fold change /veh SAMD14 (11745864_x_at) / RFU NPB (11741838_a_at) / Fold change /veh NPB (11741838_a_at) / RFU TMPRSS6 (11731388_a_at) / Fold change /veh TMPRSS6 (11731388_a_at) / RFU KRTAP10-2 (11738614_at) / Fold change /veh KRTAP10-2 (11738614_at) / RFU ARHGAP8 /// PRR5-ARHGAP8 (11727945_x_at) / Fold change /veh ARHGAP8 /// PRR5-ARHGAP8 (11727945_x_at) / RFU KRTAP5-7 /// NADSYN1 (11734609_at) / Fold change /veh KRTAP5-7 /// NADSYN1 (11734609_at) / RFU RASL12 (11751679_a_at) / Fold change /veh RASL12 (11751679_a_at) / RFU CDKN2B (11736163_a_at) / Fold change /veh CDKN2B (11736163_a_at) / RFU PRF1 (11729649_at) / Fold change /veh PRF1 (11729649_at) / RFU, ZNF638 /// ZNF638-IT1 / Fold change vs veh, ZNF638 /// ZNF638-IT1 / RFU, PANK3 / Fold change vs veh, PANK3 / RFU, SH3YL1 / Fold change vs veh, SH3YL1 / RFU, ZEB2 / Fold change vs veh, ZEB2 / RFU, NRIP1 / Fold change vs veh, NRIP1 / RFU, PTTG1IP / Fold change vs veh, PTTG1IP / RFU, CAPN2 / Fold change vs veh, CAPN2 / RFU, MED14 / Fold change vs veh, MED14 / RFU, SNORA58 / Fold change vs veh, SNORA58 / RFU, C1orf63 / Fold change vs veh, C1orf63 / RFU, LRRFIP1 / Fold change vs veh, LRRFIP1 / RFU, NDUFAF7 / Fold change vs veh, NDUFAF7 / RFU, SLC12A2 / Fold change vs veh, SLC12A2 / RFU, IBTK / Fold change vs veh, IBTK / RFU, ESF1 / Fold change vs veh, ESF1 / Fold change vs veh, TMEM50B / RFU, TAOK1 / Fold change vs veh, TAOK1 / RFU, ACBD3 / Fold change vs veh, ACBD3 / RFU, TMA16 / Fold change vs veh, TMA16 / RFU, RWDD3 / Fold change vs veh, RWDD3 / RFU, BCAT1 / Fold change vs veh, BCAT1 / RFU, EDEM3 / Fold change vs veh, EDEM3 / RFU, TMEM33 / Fold change vs veh, TMEM33 / RFU, WDR75 / Fold change vs veh, WDR75 / RFU, AHCTF1 / Fold change vs veh, AHCTF1 / RFU, TFRC / Fold change vs veh, TFRC / RFU, ZDHHC17 / Fold change vs veh, ZDHHC17 / RFU, NOM1 / Fold change vs veh, NOM1 / RFU, ARL8B / Fold change vs veh, ARL8B / RFU, ZBTB11 / Fold change vs veh, ZBTB11 / RFU, TAMM41 / Fold change vs veh, TAMM41 / RFU, KIAA1704 /// LOC100996395 / Fold change vs veh, KIAA1704 /// LOC100996395 / RFU, ING1 / Fold change vs veh, ING1 / RFU, TRMT61B / Fold change vs veh, TRMT61B / RFU, FUBP3 / Fold change vs veh, FUBP3 / RFU, TP53 / Fold change vs veh, TP53 / RFU, TNKS2 / Fold change vs veh, TNKS2 / RFU, ZFP14 / Fold change vs veh, ZFP14 / RFU, ACTR2 / Fold change vs veh, ACTR2 / RFU, PPP3R1 / Fold change vs veh, PPP3R1 / RFU, PIK3R1 / Fold change vs veh, PIK3R1 / RFU, HNRNPA1 / Fold change vs veh, HNRNPA1 / RFU, RNF170 / Fold change vs veh, RNF170 / RFU, ZNF28 / Fold change vs veh, ZNF28 / RFU, RNGTT / Fold change vs veh, RNGTT / RFU, OGT / Fold change vs veh, OGT / RFU, BRD1 / Fold change vs veh, BRD1 / RFU, MARS / Fold change vs veh, MARS / RFU, ZNF655 / Fold change vs veh, ZNF655 / RFU, FAHD1 / Fold change vs veh, FAHD1 / RFU, BDP1 / Fold change vs veh, BDP1 / RFU, LRRCC1 / Fold change vs veh, LRRCC1 / RFU, ARID1A / Fold change vs veh, ARID1A / RFU, ZNF146 / Fold change vs veh, ZNF146 / RFU, ZNF330 / Fold change vs veh, ZNF330 / RFU, GPN3 / Fold change vs veh, GPN3 / RFU, C9orf123 / Fold change vs veh, C9orf123 / RFU, N4BP2L2 / Fold change vs veh, N4BP2L2 / RFU, ARFIP1 / Fold change vs veh, ARFIP1 / RFU, FAM179B / Fold change vs veh, FAM179B / RFU, BCL10 / Fold change vs veh, BCL10 / RFU, UHRF1BP1L / Fold change vs veh, UHRF1BP1L / RFU, BET1 / Fold change vs veh, BET1 / RFU, CNOT2 / Fold change vs veh, CNOT2 / RFU, ZNF268 / Fold change vs veh, ZNF268 / Fold change vs veh, ZNF507 / RFU, DGCR2 / Fold change vs veh, DGCR2 / RFU, WDSUB1 / Fold change vs veh, WDSUB1 / Fold change vs veh, HSP90B1 /// MIR3652 / RFU, ADSS / Fold change vs veh, ADSS / RFU, GK / Fold change vs veh, GK / RFU, ZNF148 / Fold change vs veh, ZNF148 / RFU, TAF9 / Fold change vs veh, TAF9 / RFU, SLC1A5 / Fold change vs veh, SLC1A5 / RFU, SLMO2 / Fold change vs veh, SLMO2 / RFU, ABCC4 / Fold change vs veh, ABCC4 / RFU, LOC101060439 /// RAP1B / Fold change vs veh, LOC101060439 /// RAP1B / RFU, RFX7 / Fold change vs veh, RFX7 / RFU, GTPBP10 / Fold change vs veh, GTPBP10 / RFU, CNEP1R1 / Fold change vs veh, CNEP1R1 / RFU, BIVM-ERCC5 /// ERCC5 / Fold change vs veh, BIVM-ERCC5 /// ERCC5 / RFU, ILF3 / Fold change vs veh, ILF3 / RFU 11762660_at / Fold change /veh 11762660_at / RFU VCAN (11757783_s_at) / Fold change /veh VCAN (11757783_s_at) / RFU DDX43 (11728927_at) / Fold change /veh DDX43 (11728927_at) / RFU KRT8 (11758188_x_at) / Fold change /veh KRT8 (11758188_x_at) / RFU NKD1 (11759106_at) / Fold change /veh NKD1 (11759106_at) / RFU SRD5A1 (11742802_a_at) / Fold change /veh SRD5A1 (11742802_a_at) / RFU TPSAB1 /// TPSB2 (11721975_s_at) / Fold change /veh TPSAB1 /// TPSB2 (11721975_s_at) / RFU GSTM3 (11746129_a_at) / Fold change /veh GSTM3 (11746129_a_at) / RFU IL23R (11737362_x_at) / Fold change /veh IL23R (11737362_x_at) / RFU TMEM51 (11727254_a_at) / Fold change /veh TMEM51 (11727254_a_at) / RFU PIWIL2 (11732686_x_at) / Fold change /veh PIWIL2 (11732686_x_at) / RFU ORM1 (11744905_x_at) / Fold change /veh ORM1 (11744905_x_at) / RFU CCDC152 (11743942_at) / Fold change /veh CCDC152 (11743942_at) / RFU ECM1 (11717891_a_at) / Fold change /veh ECM1 (11717891_a_at) / RFU IL23R (11748794_a_at) / Fold change /veh IL23R (11748794_a_at) / RFU TNFAIP8L3 (11732012_x_at) / Fold change /veh TNFAIP8L3 (11732012_x_at) / RFU MBOAT4 (11741988_at) / Fold change /veh MBOAT4 (11741988_at) / RFU 11764193_at / Fold change /veh 11764193_at / RFU TMEM53 (11763286_at) / Fold change /veh TMEM53 (11763286_at) / RFU MAGEB2 (11727129_at) / Fold change /veh MAGEB2 (11727129_at) / RFU TMEM200A (11744735_a_at) / Fold change /veh TMEM200A (11744735_a_at) / RFU CCDC152 (11751479_a_at) / Fold change /veh CCDC152 (11751479_a_at) / RFU FAM211A (11726209_a_at) / Fold change /veh FAM211A (11726209_a_at) / RFU RGS16 (11746705_a_at) / Fold change /veh RGS16 (11746705_a_at) / RFU VCAN (11755009_s_at) / Fold change /veh VCAN (11755009_s_at) / RFU RHOB (11743442_s_at) / Fold change /veh RHOB (11743442_s_at) / RFU RGS16 (11720943_a_at) / Fold change /veh RGS16 (11720943_a_at) / RFU RGS16 (11720944_at) / Fold change /veh RGS16 (11720944_at) / RFU, VPS4B / Fold change vs veh, VPS4B / RFU, CREB1 / Fold change vs veh, CREB1 / RFU, DNAJC13 / Fold change vs veh, DNAJC13 / RFU, GNAQ / Fold change vs veh, GNAQ / RFU, CDK5R1 / Fold change vs veh, CDK5R1 / RFU, ZRANB3 / Fold change vs veh, ZRANB3 / RFU, CUL4A / Fold change vs veh, CUL4A / RFU, CCNY / Fold change vs veh, CCNY / RFU, UFL1 / Fold change vs veh, UFL1 / RFU, COG3 / Fold change vs veh, COG3 / RFU, DIAPH2 / Fold change vs veh, DIAPH2 / RFU, SKA2 / Fold change vs veh, SKA2 / RFU, AFF3 / Fold change vs veh, AFF3 / RFU, LMF1 / Fold change vs veh, LMF1 / RFU, IPO11 / Fold change vs veh, IPO11 / RFU, DFFB / Fold change vs veh, DFFB / RFU, FOXP1 / Fold change vs veh, FOXP1 / RFU, CARD8 / Fold change vs veh, CARD8 / RFU, STRN3 / Fold change vs veh, STRN3 / RFU, ADK / Fold change vs veh, ADK / RFU, RASSF2 / Fold change vs veh, RASSF2 / RFU, WIPF1 / Fold change vs veh, WIPF1 / RFU, LARP1B / Fold change vs veh, LARP1B / RFU, RASA1 / Fold change vs veh, RASA1 / RFU, RB1 / Fold change vs veh, RB1 / RFU, PPFIA1 / Fold change vs veh, PPFIA1 / RFU, MAT2A / Fold change vs veh, MAT2A / RFU, CCT5 / Fold change vs veh, CCT5 / RFU, WDR92 / Fold change vs veh, WDR92 / RFU, CUX1 / Fold change vs veh, CUX1 / RFU, TTC7A / Fold change vs veh, TTC7A / RFU, TMEM135 / Fold change vs veh, TMEM135 / RFU, DEPTOR / Fold change vs veh, DEPTOR / RFU, CPM / Fold change vs veh, CPM / RFU, DNAJB6 / Fold change vs veh, DNAJB6 / RFU, CACNA2D3 / Fold change vs veh, CACNA2D3 / RFU, DTX4 / Fold change vs veh, DTX4 / RFU, TFCP2 / Fold change vs veh, TFCP2 / RFU, GMCL1 /// GMCL1P1 / Fold change vs veh, GMCL1 /// GMCL1P1 / RFU, AEBP2 / Fold change vs veh, AEBP2 / RFU, SNHG1 /// SNORD22 /// SNORD25 /// SNORD26 /// SNORD27 /// SNORD28 /// SNORD29 /// SNORD31 / Fold change vs veh, SNHG1 /// SNORD22 /// SNORD25 /// SNORD26 /// SNORD27 /// SNORD28 /// SNORD29 /// SNORD31 / Fold change (Aza/veh), C12orf56 (ProbeSet 11735607_a_at) / Fold change (ACY-1035/veh), C12orf56 (ProbeSet 11735607_a_at) / Fold change (Aza/veh), FGFR1OP (ProbeSet 11751329_s_at) / Fold change (ACY-1035/veh), FGFR1OP (ProbeSet 11751329_s_at) / Fold change (Aza/veh), VPS36 (ProbeSet 11739960_a_at) / Fold change (ACY-1035/veh), VPS36 (ProbeSet 11739960_a_at) / RFU SYPL1 (11715823_x_at) / Fold change /veh SYPL1 (11715823_x_at) / RFU IGFBP7 (11715501_s_at) / Fold change /veh IGFBP7 (11715501_s_at) / RFU REEP3 (11722064_at) / Fold change /veh REEP3 (11722064_at) / RFU IGLL1 (11728026_x_at) / Fold change /veh IGLL1 (11728026_x_at): dose or concentration left out as unconfirmed
Details: ProbeSet 11739263_x_at; LIST D

Nc1ncn([C@@H]2O[C@H](CO)[C@@H](O)[C@H]2O)c(=O)n1 [azacitidine]
RFU, VPS4B: 59.01 RFU

From paper PMC5218480 (PLoS ONE, 2017)
